Source: patent publication US20260243779A1, “METHOD FOR EVALUATING RECEPTOR-TYPE TYROSINE KINASE ACTIVITY” (The University of Osaka, priority 2023, published 2026)

Legend:
EGFR [1] = target: T1, EGFR (Homo sapiens, UniProt P00533); experiment: EGFR immunostaining, subcellular localization of the EGFR; assay type: cell-based; details: EGF not necessary
EGFR [2] = target: T1, EGFR; experiment: Drug evaluation / FDA-approved drug library screening using MSDδt=500 ms ratio before and after EGF addition, CHO cells expressing EGFR-GFP; details: for MSDδt=500 ms ratio compared with the control: compound addition changed MSDδt=500 ms in an EGF-independent manner; for hit in primary screening (MSDδt=500 ms ratio equal to or greater than threshold = control average + 3×standard deviation): FDA-approved drug library (1134 drugs), EGF 60 nM, among the 53 hit compounds
ErbB3 = ErbB3 (Homo sapiens, UniProt P21860); experiment: Single-molecule imaging of CHO cell expressing ErbB3-GFP, MSD ratio HRG-treated/untreated; assay type: cell-based; details: drug 0.1 to 10,000 nM; HRG saturated (>30 nM); concentration-dependent; FIG. 8A
Protocol: FIGS. 8A and 8B show the relationship between the drug (Sapitinib or Afaitinib) concentration and the receptor diffusion dynamics (MSDδt=500 ms ratio) when the HRG concentration is saturated (>30 nM); here, FIG. 8A is the result for Sapitinib and FIG. 8B is the result for Afaitinib. […] Therefore, it was confirmed that the effect of the phosphorylation inhibitor can be estimated from the change in the molecular dynamics by measuring the diffusion dynamics and calculating the ratio of the MSD values, even for the RTK receptor other than the EGFR.

T1 sequence (P00533 25-1210): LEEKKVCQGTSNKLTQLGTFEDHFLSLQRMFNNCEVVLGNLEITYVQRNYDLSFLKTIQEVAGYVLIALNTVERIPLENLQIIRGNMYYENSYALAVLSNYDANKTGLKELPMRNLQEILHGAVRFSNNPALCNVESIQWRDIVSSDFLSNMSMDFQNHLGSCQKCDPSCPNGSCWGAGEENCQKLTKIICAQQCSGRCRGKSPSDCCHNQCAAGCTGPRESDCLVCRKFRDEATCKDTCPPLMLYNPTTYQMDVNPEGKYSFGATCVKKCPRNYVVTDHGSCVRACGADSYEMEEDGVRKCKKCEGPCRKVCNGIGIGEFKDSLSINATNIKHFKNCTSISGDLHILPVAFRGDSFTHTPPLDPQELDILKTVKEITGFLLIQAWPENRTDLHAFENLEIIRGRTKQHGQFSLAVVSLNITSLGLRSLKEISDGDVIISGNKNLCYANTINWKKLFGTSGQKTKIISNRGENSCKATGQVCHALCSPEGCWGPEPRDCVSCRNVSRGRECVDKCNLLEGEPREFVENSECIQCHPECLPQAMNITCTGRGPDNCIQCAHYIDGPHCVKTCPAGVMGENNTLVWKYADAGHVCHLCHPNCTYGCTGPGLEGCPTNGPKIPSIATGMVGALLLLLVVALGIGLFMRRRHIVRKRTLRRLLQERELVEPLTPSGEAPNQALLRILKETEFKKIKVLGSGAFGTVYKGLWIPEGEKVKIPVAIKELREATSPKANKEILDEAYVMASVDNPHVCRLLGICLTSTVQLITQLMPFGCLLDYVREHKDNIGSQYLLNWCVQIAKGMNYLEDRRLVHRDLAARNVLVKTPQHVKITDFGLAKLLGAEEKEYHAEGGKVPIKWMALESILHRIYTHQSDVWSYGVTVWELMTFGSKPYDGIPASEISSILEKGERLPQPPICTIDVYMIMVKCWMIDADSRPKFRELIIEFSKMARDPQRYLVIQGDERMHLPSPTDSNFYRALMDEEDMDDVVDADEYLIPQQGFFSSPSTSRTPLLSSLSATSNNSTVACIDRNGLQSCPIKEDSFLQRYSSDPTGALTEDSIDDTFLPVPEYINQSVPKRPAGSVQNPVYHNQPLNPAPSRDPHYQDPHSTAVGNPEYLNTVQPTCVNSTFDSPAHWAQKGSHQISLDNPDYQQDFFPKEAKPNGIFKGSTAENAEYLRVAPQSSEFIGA
ErbB3, sequence (P21860 20-1342): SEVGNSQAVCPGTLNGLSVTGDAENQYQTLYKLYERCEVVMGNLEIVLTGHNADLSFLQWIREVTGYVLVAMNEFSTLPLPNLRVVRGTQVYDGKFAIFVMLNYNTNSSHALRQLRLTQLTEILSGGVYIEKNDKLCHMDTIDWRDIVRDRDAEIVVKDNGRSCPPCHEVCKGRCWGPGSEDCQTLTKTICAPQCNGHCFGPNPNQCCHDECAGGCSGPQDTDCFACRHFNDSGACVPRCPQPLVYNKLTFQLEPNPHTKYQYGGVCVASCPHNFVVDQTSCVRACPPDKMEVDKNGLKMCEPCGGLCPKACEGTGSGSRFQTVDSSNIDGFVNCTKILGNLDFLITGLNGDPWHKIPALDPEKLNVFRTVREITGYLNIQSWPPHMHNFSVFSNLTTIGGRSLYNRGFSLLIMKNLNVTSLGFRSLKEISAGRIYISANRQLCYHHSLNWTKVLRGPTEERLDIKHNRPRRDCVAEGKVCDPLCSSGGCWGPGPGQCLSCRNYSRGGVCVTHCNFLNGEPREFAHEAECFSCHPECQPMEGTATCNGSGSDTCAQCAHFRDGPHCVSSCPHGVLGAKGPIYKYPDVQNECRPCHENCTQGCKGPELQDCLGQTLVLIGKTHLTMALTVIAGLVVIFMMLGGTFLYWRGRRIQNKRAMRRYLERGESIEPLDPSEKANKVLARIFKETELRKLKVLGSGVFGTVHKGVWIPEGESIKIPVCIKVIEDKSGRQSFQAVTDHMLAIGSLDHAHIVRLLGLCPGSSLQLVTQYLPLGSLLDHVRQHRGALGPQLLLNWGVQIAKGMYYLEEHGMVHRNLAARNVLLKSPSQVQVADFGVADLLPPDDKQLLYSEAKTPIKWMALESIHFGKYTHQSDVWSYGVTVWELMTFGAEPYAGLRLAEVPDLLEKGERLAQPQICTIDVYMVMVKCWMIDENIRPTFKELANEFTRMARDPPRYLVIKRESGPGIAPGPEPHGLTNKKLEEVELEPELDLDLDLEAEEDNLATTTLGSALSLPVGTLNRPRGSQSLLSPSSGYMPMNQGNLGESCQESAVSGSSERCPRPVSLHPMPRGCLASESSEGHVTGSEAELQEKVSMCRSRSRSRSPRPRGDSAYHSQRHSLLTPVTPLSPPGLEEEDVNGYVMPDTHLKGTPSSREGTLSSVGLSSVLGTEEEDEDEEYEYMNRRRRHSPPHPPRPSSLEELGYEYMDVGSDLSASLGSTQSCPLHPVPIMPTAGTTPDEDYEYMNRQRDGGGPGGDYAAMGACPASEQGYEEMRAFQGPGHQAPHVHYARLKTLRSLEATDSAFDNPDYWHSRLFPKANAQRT

effect on the subcellular localization of the EGFR (EGFR [1])	MSDδt=500 ms ratio compared with the control (EGFR [2])	SMILES	hit in primary screening (MSDδt=500 ms ratio equal to or greater than threshold = control average + 3×standard deviation) (EGFR [2])	effect on reduction of receptor mobility (MSDδt=500 ms ratio) by HRG, ErbB3 (ErbB3)
EGFR was incorporated into the cell	significantly different from the control	Oc1c(Br)cc(Br)c2cccnc12 [Broxyquinoline]		
		COc1cccc2c1C(=O)c1c(O)c3c(c(O)c1C2=O)C[C@@](O)(C(C)=O)C[C@@H]3O[C@H]1C[C@H](N)[C@H](O)[C@H](C)O1 [Daunorubicin]	included	
EGFR was incorporated into the cell	significantly different from the control	Cc1cn(-c2cc(NC(=O)c3ccc(C)c(Nc4nccc(-c5cccnc5)n4)c3)cc(C(F)(F)F)c2)cn1 [Nilotinib]		
		C#Cc1cccc(Nc2ncnc3cc(OCCOC)c(OCCO)cc23)c1 [OSI-420]	included	
		CNC(=O)CN1CCC(Oc2cc3c(Nc4cccc(Cl)c4F)ncnc3cc2OC)CC1 [Sapitinib]		inhibited the reduction of the receptor mobility

SMILES	effect on the subcellular localization of the EGFR (EGFR [1])	MSDδt=500 ms ratio compared with the control (EGFR [2])	hit in primary screening (MSDδt=500 ms ratio equal to or greater than threshold = control average + 3×standard deviation) (EGFR [2])	effect on reduction of receptor mobility (MSDδt=500 ms ratio) by HRG, ErbB3 (ErbB3)
O=C(OCC(O)CO)c1ccccc1Nc1ccnc2cc(Cl)ccc12 (stereo not drawn) [Glafenine]	EGFR was incorporated into the cell	significantly different from the control		
